One test deals with BALB/c female mice. Description: Mouse Model of Allergic Asthma. Type of test: in vivo. The conditions noted are these: 100 mg/kg ip. The source says:
Mouse Model of Allergic Asthma: An allergic asthma model in mice was used to test compounds of the invention for therapeutic effect on asthmatic response as a function of airway inflammation and hyperresponsiveness ([…], et al., J. Phar. Exp. Ther., 2000, 295: 912-926). Airway hyperresponsiveness in asthmatic patients is a cardinal feature of allergic asthma and is maintained as a result of persistent airway inflammation. Eosinophils are the prominent cells involved in airway inflammation and are found in large numbers in sputum and bronchoalveolar lavage fluids. Airway responsiveness was measured in unrestrained mice by noninvasive whole body plethysmography using a BioSystem plethysmography instrument (BUXCO, Troy, N.Y.). Each animal was individually placed in the plethysmography instrument chamber and chamber pressure was used as a measure of the difference between thoracic volume expansion or contraction and air volume removed or added to the chamber during breathing. The differential of this function with respect to time produced a pseudo flow value that was proportionate to the difference between the rate of the thoracic volume expansion and nasal air flow (Hamelmann, et al., J. Respir. Crit. Care Med., 1997, 156: 766-775). Three treatment groups of BALB/c female mice (6-8 weeks old) were tested in the 32 day study: • Group 1: vehicle control phosphate buffered saline (PBS)-sensitized and PBS-challenged mice; • Group 2: positive control ovalbumin (OVA)-sensitized and OVA-challenged mice; and, • Group 3: OVA-sensitized and OVA-challenged mice treated with Compound 13. […] • Group 1 mice were sensitized by injection (ip) with PBS; and, • Group 2 mice were OVA sensitized by injection (ip) with OVA (20 μg) dissolved in PBS adsorbed on 2.25 mg alum. […] Day 32: The three treatment groups were challenged via airway by means of methacholine inhalation and asthmatic response was measured as a function of airway hyper-responsiveness. A baseline reading over a 5 min period for each of the mice in the three treatment groups was taken in the plethysmography instrument, then the baseline readings were averaged. • Group 1 mice were nebulized with saline at increasing doses (1-30 mg/ml) over a 2 min period. • Group 2 (first subset) and Group 3 mice were nebulized with methacholine at increasing doses (1-30 mg/ml) over a 2 min period. Post-Challenge Phase A 5 min post-challenge reading for each of the mice was taken and the readings were averaged. Reduction in airway hyperresponsiveness was calculated according to the following formula: [formula] Airway inflammation was measured by eosinophil cell count in bronchoalveolar saline lavage samples (1 mL) of the mice from the three groups. […] The number of eosinophils was counted and the cell concentration adjusted to 0.1×10^6/mL.

Test [1] has as its system Lewis rats. Description: Adjuvant-Induced Arthritis Model (Therapeutic Dosing from Day 12-16). Type of test: in vivo. The source says:
Adjuvant-Induced Arthritis Model (Therapeutic Dosing from Day 12-16)

Test [2] concerns Lewis rats.
Test [3] concerns THP-1 cells. Description: MCP-1 Induced Chemotaxis in THP-1 Cells. Type of test: cell-based. To be noted: Homo sapiens, read-out: Inhibition of MCP-1 Induced Chemotaxis IC50.
Test [4] concerns THP-1 cells. The conditions noted are these: Homo sapiens.
The next test deals with DBA1 mice. The conditions noted are these: 100 mg/kg ip, bid, day 20 to day 35, in either vehicle.
In a further test the target is T1, CCR2 (Homo sapiens, UniProt P41597).
T1 sequence (P41597 1-360 isoform P41597-2): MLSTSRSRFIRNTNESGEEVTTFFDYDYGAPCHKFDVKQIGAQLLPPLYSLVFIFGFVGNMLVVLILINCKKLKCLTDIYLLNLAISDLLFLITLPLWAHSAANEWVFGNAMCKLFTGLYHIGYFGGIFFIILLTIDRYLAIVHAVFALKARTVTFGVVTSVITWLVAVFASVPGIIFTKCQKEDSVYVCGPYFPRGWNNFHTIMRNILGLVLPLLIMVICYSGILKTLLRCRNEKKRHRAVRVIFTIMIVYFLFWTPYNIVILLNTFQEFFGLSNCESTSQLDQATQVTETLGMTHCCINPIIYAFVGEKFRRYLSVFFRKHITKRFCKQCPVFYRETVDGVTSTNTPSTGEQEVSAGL

Setting [5] is: OVA-sensitized and OVA-challenged mice.
The mark [6] stands for this setting: orally, once per day, 3 mg/kg (positive control), therapeutic study.
Setting [7] is: orally, once per day, 3 mg/kg, days 10-14 (positive control).
Where [8] appears, read: THP-1, read-out: Inhibition of MCP-1 Induced Calcium Ion Influx IC50.
Where [9] appears, read: THP-1 cells, MCP-1 0.01 μg/mL, 3 hours.

Usually IC50 stands for the point on the concentration scale where inhibition reaches its midpoint.

Each structure is given as a SMILES string. Where two headings read alike, the source gives them in different places.

Procedure for DBA1 mice: Collagen-Induced Arthritis Model
In a collagen-induced arthritis model in mice, DBA1 mice were immunized with bovine type II collagen on day 0, injected (sc) with lipopolysaccharide (LPS) on day 21, and dosed (ip, bid) with a test compound at either 25, 50 or 100 mg/kg from day 20 to day 35. Body weight was monitored, and clinical disease score recorded every 2-3 days starting on day 20.
Test compound was dosed in one of two vehicles:
• 1) 10% Pharmasolve:20% PEG-400:70% of a 1% solution of Tween-80 in water; or, • 2) 30% PEG400:20% Solutol:50% of a 0.1 N solution of NaHCO3.

Take `O=C(O)[C@H](C1CCN(C(=O)/C=C/c2cc(F)c(F)c(F)c2)CC1)N1CCC(c2c[nH]c3ccccc23)CC1` [Cpd 13, (S)-{[4-(1H-indol-3-yl)-piperidin-1-yl]}-{1-[(2E)-3-(3,4,5-trifluoro-phenyl)-acryloyl]-piperidin-4-yl}-acetic acid]: the “Airway Hyperresponsiveness (whole body plethysmography reading)” value with BALB/c female mice (Group 3: OVA-sensitized and OVA-challenged mice, methacholine challenge day 32, n=4) is given as 1147±49. Moreover, in the test with BALB/c female mice (Group 3: OVA-sensitized and OVA-challenged mice, n=3), the “Eosinophil Infiltration (eosinophil cell count in bronchoalveolar lavage)” value is 0.2±0.1 ×10^5/ml. Besides, in the test on BALB/c female mice (setting [5]), the “reduction in airway hyperresponsiveness compared to the non-treated mice” value is given as approximately 36% and the “reduction in airway inflammation compared to the non-treated mice” value is given as 75%.
With `COc1ccc2c(c1)c(CC(=O)O)c(C)n2C(=O)c1ccc(Cl)cc1` [Indomethacin, indomethacin, reference compound], in the test with Lewis rats [1] (setting [6]), the “inhibited adjuvant-injected paw swelling” value was determined as 40% and the “inhibited contralateral paw swelling” value was found to be 69%. Also, in the test with Lewis rats [2] (setting [7]), the “inhibited contralateral paw swelling” value is reported as 72% and the “inhibited swelling in the adjuvant-injected paws” value turned out to be 38%.
For the molecule `O=C(O)C(C1CCN(C(=O)/C=C/c2cc(F)c(F)c(F)c2)CC1)N1CCC(c2c[nH]c3ccccc23)CC1` (stereo not drawn) [Cpd 6, [4-(1H-indol-3-yl)-piperidin-1-yl]-{1-[(2E)-3-(3,4,5-trifluoro-phenyl)-acryloyl]-piperidin-4-yl}-acetic acid], in the test with THP-1 cells [3] (THP-1, 3 h), the IC50 amounted to 0.008 µM. For the same molecule, in the test with THP-1 cells [4] (setting [8]), the IC50 is 0.005 µM. Moreover, in the test with Lewis rats [1] (ip, bid, 100 mg/kg, days 12-16), the “decreased swelling in the injected paw” value turned out to be 40% and the “inhibited contralateral paw swelling” value was found to be 51%. Also, the “inhibited the development of arthritis (clinical disease score on day 35)” value in the test on DBA1 mice is recorded as “greater than 90%”. Besides, in the test with Lewis rats [2] (ip, bid, 100 mg/kg, days 0-14), the “decrease in swelling in the injected paws” value is recorded as 40% and the “swelling of the contralateral paws” value is given as “insignificant swelling”.
Take `O=C(/C=C/c1ccc(Cl)c(Cl)c1)N1CCC(C(CO)N2CCC(c3ccncc3)CC2)CC1` (stereo not drawn) [Cpd 185, (2E)-3-(3,4-dichloro-phenyl)-1-{4-[2-hydroxy-1-(3,4,5,6-tetrahydro-2H-[4,4′]bipyridinyl-1-yl)-ethyl]-piperidin-1-yl}-propenone]: the IC50 amounted to 0.84 µM against CCR2, 0.34 µM with THP-1 cells [3] (setting [9]) and 4.6 µM in the test with THP-1 cells [4] (setting [8]).
For `CC(=O)OCC(C1CCN(C(=O)Nc2ccc(Cl)c(Cl)c2)CC1)N1CCC(c2c[nH]c3ccccc23)CC1` (stereo not drawn) [Cpd 242, acetic acid 2-[1-(3,4-dichloro-phenylcarbamoyl)-piperidin-4-yl]-2-[4-(1H-indol-3-yl)-piperidin-1-yl]-ethyl ester], in that order: 0.23 µM, 0.27 µM and 0.04 µM.
For `O=C(Nc1cc(F)cc(F)c1)N1CCC(C(CO)N2CCC(c3c[nH]c4ccccc34)CC2)CC1` (stereo not drawn) [Cpd 129, 4-{2-hydroxy-1-[4-(1H-indol-3-yl)-piperidin-1-yl]-ethyl}-piperidine-1-carboxylic acid (3,5-difluoro-phenyl)-amide], in that order: 0.04 µM, 0.08 µM and 0.02 µM.
In the same order, the values of `O=C(O)C(C1CCN(C(=O)Nc2ccc(Br)cc2)CC1)N1CCC(c2c[nH]c3ccccc23)CC1` (stereo not drawn) [Cpd 89, [1-(4-bromo-phenylcarbamoyl)-piperidin-4-yl]-[4-(1H-indol-3-yl)-piperidin-1-yl]-acetic acid] are 0.095 µM, 0.21 µM and 0.47 µM.
Consider `Cc1ccc(NC(=O)N2CCC(C(C(=O)O)N3CCC(c4c[nH]c5ccccc45)CC3)CC2)cc1` (stereo not drawn) [Cpd 99, [4-(1H-indol-3-yl)-piperidin-1-yl]-(1-p-tolylcarbamoyl-piperidin-4-yl)-acetic acid], for which the IC50 on CCR2 came out at 0.81 µM; in the test on THP-1 cells [3] (setting [9]), 2.5 µM; in the test on THP-1 cells [4] (setting [8]), 1.6 µM.
For `O=C(O)C(C1CCN(C(=O)COc2ccc(Cl)c(Cl)c2)CC1)N1CCC(c2c[nH]c3ccccc23)CC1` (stereo not drawn) [Cpd 114, {1-[2-(3,4-dichloro-phenoxy)-acetyl]-piperidin-4-yl}-[4-(1H-indol-3-yl)-piperidin-1-yl]-acetic acid], the IC50 at CCR2 amounted to 0.35 µM; with THP-1 cells [3] (THP-1, 3 h, THP-1 cells, MCP-1 0.01 μg/mL, 3 hours), 0.29 µM; with THP-1 cells [4] (THP-1, read-out: Inhibition of MCP-1 Induced Calcium Ion Influx IC50, THP-1 cells, 0.2 μM MCP-1, FLIPR), 0.21 µM.
As for `CC(=O)NCC(C1CCN(C(=O)/C=C/c2cc(F)cc(F)c2)CC1)N1CCC(c2c[nH]c3ccccc23)CC1` (stereo not drawn) [Cpd 214, N-{2-{1-[(2E)-3-(3,5-difluoro-phenyl)-acryloyl]-piperidin-4-yl}-2-[4-(1H-indol-3-yl)-piperidin-1-yl]-ethyl}-acetamide], the IC50 at CCR2 worked out at 0.07 µM; in the test on THP-1 cells [3] (setting [9]), 0.19 µM; with THP-1 cells [4] (setting [8]), 0.18 µM.
For `CS(=O)(=O)Nc1ccc2[nH]cc(C3CCN(C(COC(=O)/C=C/c4cc(F)cc(F)c4)C4CCN(C(=O)/C=C/c5cc(F)cc(F)c5)CC4)CC3)c2c1` (stereo not drawn) [Cpd 199, (2E)-3-(3,5-difluoro-phenyl)-acrylic acid 2-{1-[(2E)-3-(3,5-difluoro-phenyl)-acryloyl]-piperidin-4-yl}-2-[4-(5-methanesulfonylamino-1H-indol-3-yl)-piperidin-1-yl]-ethyl ester], in that order: 0.02 µM, 0.03 µM and 0.004 µM.
For `CSc1ccc(NC(=O)N2CCC(C(C(=O)O)N3CCC(c4c[nH]c5ccccc45)CC3)CC2)cc1` (stereo not drawn) [Cpd 127, [4-(1H-indol-3-yl)-piperidin-1-yl]-[1-(4-methylsulfanyl-phenylcarbamoyl)-piperidin-4-yl]-acetic acid], in that order: 0.76 µM, 0.75 µM and 0.82 µM.
For `CC(=O)OCC(C1CCN(C(=O)/C=C/c2cc(F)cc(F)c2)CC1)N1CCC(c2c[nH]c3ccccc23)CC1` (stereo not drawn) [Cpd 235, acetic acid 2-{1-[(2E)-3-(3,5-difluoro-phenyl)-acryloyl]-piperidin-4-yl}-2-[4-(1H-indol-3-yl)-piperidin-1-yl]-ethyl ester], in that order: 0.03 µM, 0.008 µM and 0.02 µM.
For `O=C(/C=C/c1cc(F)cc(F)c1)N1CCC(C(CO)N2CCC(c3ccc(F)cc3)CC2)CC1` (stereo not drawn) [Cpd 192, (2E)-3-(3,5-difluoro-phenyl)-1-(4-{1-[4-(4-fluoro-phenyl)-piperidin-1-yl]-2-hydroxy-ethyl}-piperidin-1-yl)-propenone], the IC50 came to 0.22 µM at CCR2, 0.35 µM in the test on THP-1 cells [3] (setting [9]) and 0.17 µM with THP-1 cells [4] (setting [8]).

For the origin of these results see US20060069123A1, “Substituted dipiperidine CCR2 antagonists” (priority 2004, published 2006).
